Assay results: patent US20250059187A1, “COVALENTLY BINDING INHIBITORS OF G12S, G12D AND/OR G12E MUTANTS OF K-RAS GTPASE” (The Regents of the University of California, priority 2021, published 2025)

What was measured:
[1] = tested on: A549 cells (homozygous KRAS p.G12S mutation); test: Immunoblot and Raf-RBD pulldown in A549 cells; assay type: cell-based; details: 2 h
Procedure: (§1) Cells were passed for at least two generations after cryorecovery before they were used for assays. All cell lines were tested mycoplasma negative using MycoAlert™ Mycoplasma Detection Kit (Lonza). When indicated, cells were treated with drugs at 40-60% confluency at a final DMSO concentration of 1%. At the end of treatment period, cells were placed on ice. Unless otherwise indicated, adherent cells were washed once with ice-cold PBS (1 mL), scraped with a spatula, and pelleted by centrifugation (500×g, 5 min). Suspension cells were pelleted by centrifugation (500×g, 5 min), washed with 1 mL ice-cold PBS, and pelleted again. Cells were lysed in RIPA buffer supplemented with protease and phosphatase inhibitors (cOmplete and phosSTOP, Roche) on ice for 10 min. For RBD pulldown experiments, cells were lysed in Co-IP Lysis Buffer in lieu of RIPA buffer. Lysates were clarified by high-speed centrifugation (19,000×g, 10 min). Concentrations of lysates were determined with protein BCA assay (Thermo Fisher) and adjusted to 2 mg/mL with additional RIPA buffer (or Co-IP Lysis Buffer). Samples were mixed with 5×SDS Loading Dye and heated at 95° C. for 5 min.
Ras·GTP pulldown was performed with GST-RBD agarose beads (Cytoskeleton, 10 μL, 30 μg loaded GST-RBD). 50 μL lysate (2 mg/mL) was mixed with 10 μL beads, and the suspension was incubated at 4° C. for 1 h with constant end-to-end rotation. The beads were settled by centrifugation (500×g, 5 min) and the supernatant was carefully removed. The beads were washed with 2×500 μL ice-cold Co-IP wash buffer. Bound protein was eluted with 10 μL 2×SDS Loading Buffer.
Membranes were blocked in 5% BSA-TBST for 1 h at 23° C. […] After washing the membrane three times with TBST (5 min each wash), secondary antibodies (goat anti-rabbit IgG-IRDye 800 and goat anti-mouse IgG-IRDye 680, Li-COR) were added as solutions in 5% skim milk-TBST at the dilutions recommended by the manufacturer. Secondary antibody binding was allowed to proceed for 1 h at 23° C. The membrane was washed three times with TBST (5 min each wash) and imaged on a Li-COR Odyssey fluorescence imager.

[2] = tested on: H358 cells (heterozygous KRAS p.G12C); test: Immunoblot in H358 cells; assay type: cell-based; details: 10 μM, 2 h
Procedure: as §1, with “Samples were mixed with 5×SDS Loading Dye and heated at 95° C. for 5 min.” left out
Unless otherwise noted, SDS-PAGE was run with Novex 16% Bis-Tris gel (Invitrogen) in MES running buffer (Invitrogen) at 200 V for 60 min following the manufacturer's instructions. […] The membrane was washed three times with TBST (5 min each wash) and imaged on a Li-COR Odyssey fluorescence imager.

[3] = tested on: Ba/F3:K-Ras(G12S) cells (without IL-3); test: Cell viability assay (CellTiter-Glo), Ba/F3:K-Ras(G12S) cells; assay type: cell-based, murine
Procedure: Cells were seeded into 96-well white flat bottom plates (1,000 cells/well) (Corning) and incubated overnight. […] Cell viability was assessed using a commercial CellTiter-Glo (CTG) luminescence-based assay (Promega). Briefly, the 96-well plates were equilibrated to room temperature before the addition of diluted CTG reagent […] (1:4 CTG reagent:PBS). Plates were placed on an orbital shaker for 30 min before recording luminescence using a Spark 20M (Tecan) plate reader.

Ba/F3:K-Ras(G12S) cells = test: Phospho-ERK assay in Ba/F3:K-Ras(G12S) cells; assay type: cell-based, murine; details: 1 h treatment
Procedure: Ba/F3 parental cells were pelleted and resuspend in IL-3 supplemented growth medium (RPMI 1640, 10% heat-inactivated FBS, 10 ng/mL mouse IL-3 medium) to 1×10^7/mL. Ba/F3 K-Ras(G12S) transductant cells were pelleted and resuspended in IL-3 free growth medium (RPMI 1640, 10% heat-inactivated FBS) to 1×10^7/mL. 25 μL cells were added to each well of a 96-well plate (2.5×10^5 cells/well), followed by 5 μL 6× compound solutions (6% DMSO). The mixture was incubated at 37° C. for 1 h. Cell lysis and subsequent high-throughput phospho-ERK assay was performed using Cisbio Advanced phospho-ERK (Thr202/Tyr204) cellular kit (PerkinElmer 64AERPEG) following the manufacturer's instructions.

wild type K-Ras = molecular target: T1, wild type K-Ras (Homo sapiens, UniProt P01116); test: Covalent modification of test protein after incubation with compound; assay type: binding; details: 24-h incubation with 100 μM compound at 23° C. at pH 7.5
T1 construct: human K-Ras (wildtype, aa 1-169); 6xHis tag + TEV cleavage site (N, cleaved yes); made in house; host or cells: E. coli BL21(DE3)

K-Ras G12D = molecular target: T2, K-Ras G12D (Homo sapiens, UniProt P01116, G12D); test: as above; assay type: binding; details: 24-h incubation with 100 μM compound at 23° C. at pH 7.5
T2 construct: human K-Ras (G12D, aa 1-169); 6xHis tag + TEV cleavage site (N, cleaved yes); made in house; host or cells: E. coli BL21(DE3)

## O=C1O[C@H]2CN(c3nc(OCC45CCCN4CCC5)nc4c(F)c(-c5cccc6cccc(Cl)c56)ncc34)CC[C@@H]12 [5′]
[1]; 10 μM
  effects on phospho-Akt, phospho-Erk and Ras·GTP levels: nearly complete loss of Ras·GTP and concomitant inhibition of phospho-Erk
[1]; Homo sapiens, A549 cells, read-out: apparent IC50, inhibition of Ras signaling
  IC50: ~3 µM
[2]
  phospho-Erk in H358 cells: weak inhibition of phospho-Erk
[3]
  selectivity, Ba/F3:K-Ras(G12S) over parental Ba/F3 cells: five-fold
[3]; Mus musculus, BaF3, no IL-3, 72 h, read-out: IC50, growth of K-Ras(G12S)-transduced Ba/F3 cells
  IC50: 2.4 µM
Ba/F3:K-Ras(G12S) cells
  phospho-ERK levels: dose-dependent reduction of phospho-ERK levels
Wild type K-Ras
  % covalent modification of wild type K-Ras: 0%
K-Ras G12D
  % covalent modification of K-Ras G12D: 0%
